# Reference: the SangsterLogP compilation
row,logP,SMILES
1,0.81,Cc1cc(C#N)ccn1
2,2.79,CSc1cnc2ccccc2n1
3,1.97,O=[N+]([O-])c1cnc2ccccc2c1
4,1.83,CCOC(=O)c1cccc2cccnc12
5,0.79,CS(=O)(=O)c1cnc2ccccc2n1
6,1.29,Nc1cccc2nccnc12
7,1.61,Cc1cnc2ccccc2n1
8,2.71,Clc1ccc2ccccc2n1
9,2.31,COc1cnc2ccccc2n1
10,0.48,O=[N+]([O-])c1ccccn1
11,1.26,O=COc1ccccc1
12,2.1,Clc1ccc2nccnc2c1
13,0.71,CC(=O)Nc1cccc2ncccc12
14,1.73,CCOC(=O)Oc1cccc2cccnc12
15,0.43,CC(=O)c1cccnc1
16,2.92,Brc1ccc2cccnc2c1
17,2.29,Cc1cc2nccnc2cc1C
18,0.87,COC(=O)c1ccncc1
19,1,COc1ccncc1
20,1.63,Nc1ccnc2ccccc12
21,0.41,CC(=O)Nc1cccnc1
22,0.23,Cc1cnccn1
23,2.73,CN(C)c1cccc2cccnc12
24,2.54,CC(=O)c1ccc2ccccc2n1
25,2.71,CN(C)c1ccc2cccnc2c1
26,1.33,Clc1cccnc1

row,logP,SMILES
1,1.34,CN(C)c1ccncc1
2,2.57,O=S(=O)(c1ccccc1)c1ccc2ncccc2c1
3,-0.07,Nc1cnccn1
4,0.9,Nc1ccc2nccnc2c1
5,1.2,Cc1cccc2c1ncc[n+]2[O-]
6,2.06,O=[N+]([O-])c1ccnc2ccccc12
7,0.84,Cc1cccc(C#N)n1
8,2.73,CCC(=O)Nc1ccnc2cc(Cl)ccc12
9,0.63,Cc1cnc(C)cn1
10,1.5,Nc1cnc2ccccc2n1
11,2.37,COc1ccc2cccnc2c1
12,1.01,N#Cc1ccc2nccnc2c1
13,0.6,O=[N+]([O-])c1cccnc1
14,0.83,CC(=O)c1ccccn1
15,2.62,CC(=O)c1ccnc2cc(Cl)ccc12
16,-0.35,Cc1ccc2c(c1)N(O)C=CN2O
17,2.04,Cc1cccc2nccnc12
18,2.22,CCOc1ccc2nccnc2c1
19,1.75,Clc1cccc2nccnc12
20,1.55,CC(=O)Nc1ccc2ncccc2c1
21,1.92,CC(=O)Nc1cnc2ccccc2c1
22,2.23,Clc1cnc2ccccc2n1
23,0.99,Cc1ccc([N+](=O)[O-])cn1
24,1.63,Nc1cnc2ccccc2c1
25,1.98,N#Cc1ccnc2ccccc12

row,SMILES,logP
1,N#Cc1ccncc1,0.46
2,N#Cc1ccccn1,0.5
3,N#Cc1cccnc1,0.36
